From patent publication US10413541B2, “Oxabicycloheptanes and oxabicycloheptenes for the treatment of depressive and stress disorders” (LIXTE BIOTECHNOLOGY, INC., priority 2015, dated 2019)
Entries after “also recorded” stand apart in the source; their conditions may differ. Read-outs that look alike come from different tables or passages of the source.

Experiments:
Type in all cases: cell-based, mice
[1] = tested on: LHb neurons; assay: Cell-attached recording of spontaneous firing of LHb neurons; details: baclofen application, then CGP54626 10 μM
Protocol: (§1) Animals were anesthetized with Ketamine/Xylazine (50 mg/10 mg Kg-1 i.p.; Sigma-Aldrich, France). The preparation of LHb-containing brain slices was done in bubbled ice-cold 95% O2/5% CO2-equilibrated solution containing (in mM): cholineCl 110; glucose 25; NaHCO3 25; MgCl2 7; ascorbic acid 11.6; Na+-pyruvate 3.1; KCl 2.5; NaH2PO4 1.25; CaCl2 0.5. Sagittal slices (250 μm) were stored at room temperature in 95% O2/5% CO2-equilibrated artificial cerebrospinal fluid (ACSF) containing (in mM): NaCl 124; NaHCO3 26.2; glucose 11; KCl 2.5; CaCl2 2.5; MgCl2 1.3; NaH2PO4 1. Recordings (flow rate of 2.5 ml/min) were made under an Olympus-BX51 microscope (Olympus, France) at 32° C. Currents were amplified, filtered at 5 kHz and digitized at 20 kHz. Access resistance was monitored by a step of −4 mV (0.1 Hz). Experiments were discarded if the access resistance increased more than 20%.
(§2) The internal solution to measure GABAB-GIRK currents and neuronal excitability contained 140 mM potassium gluconate, 4 mM NaCl, 2 mM MgCl2, 1.1 mM EGTA, 5 mM HEPES, 2 mM Na2ATP, 5 mM sodium creatine phosphate, and 0.6 mM Na3GTP (pH 7.3), with KOH. When we measured the synaptic inhibitory or excitatory release the internal solution contained (in mM): CsCl 130; NaCl 4; MgCl2 2; EGTA 1.1; HEPES 5; Na2ATP 2; Na+-creatine-phosphate 5; Na3GTP 0.6, and spermine 0.1. The liquid junction potential was −3 mV. For cell-attached recordings the internal solution consisted in ACSF.
(§3) Cell-attached recordings in ACSF were performed in GΩ seal with a Vc=0 and Hc=0. Whole-cell voltage clamp recordings were achieved to measure GABAB-GIR currents in presence of Bicuculine (10 μM), NBQX (20 μM) and AP5 (50 μM). […] GABAB-GIRK currents were confirmed by antagonism with either 10 μM of CGP54626, a specific GABAB antagonist or 1 mM Ba^2, a selective inhibitor of inward rectifiers. For the GTPγS experiment, 100 μM of GTPγS was added to the internal solution in place of Na3GTP.

[2] = tested on: GABAB-GIRK currents in LHb neurons; details: for I-baclofen, residual current independent of GIRKs: barium 1 mM in the bath
[3] = tested on: GIRK channels; assay: GTPγS-induced Ba2+-sensitive outward current (I-GTPγS) in LHb neurons of brain slices; details: GTPγS 100 μM in the internal solution
Protocol: as §1, §3

[4] = tested on: LHb neurons; assay: Current-clamp excitability (evoked action potentials, input-output curve) of LHb neurons in slices; details: baclofen bath application, saturating dose
Protocol: as §1, §2
For the Okadaic acid (OA) and the CaMKII inhibitor KN93 experiments, respectively 100 nM of OA or 10 μM of KN93 were added in the internal solution. For the PP2A inhibitor LB100 experiments, LB100 (0.1 μM) was applied in the bath. Miniature excitatory postsynaptic currents (mEPSCs) were recorded in voltage-clamp mode at −60 mV in presence of bicuculine (10 μM) and TTX (1 μM). Miniature inhibitory postsynaptic currents (mIPSCs) were recorded (−60 mV) in presence of NBQX (20 μM) and TTX (1 μM). EPSCs and IPSCs were evoked through an ACSF filled monopolar glass electrode placed 200 μm from the recording site in the stria medullaris. AMPA:NMDA ratios of evoked-EPSC were obtained by AMPA-EPSC −60 mV/NMDA-EPSCs at +40 mV. Rectification Index (RI) was computed by […]-60/AMPA-EPSC+40. For the experiments in which high-frequency stimulation trains were used to determine presynaptic release probability, QX314 (5 mM) was included in the internal solution to prevent the generation of sodium spikes. Current-clamp experiments, were performed by a series of current steps (negative to positive) injected to induce action potentials (5-10 pA injection current per step, 800 ms).

[5] = KN93 10 μM intracellular dialysis
[6] = Okadaic acid 100 nM intracellular dialysis

C[C@H](NC[C@H](O)CP(=O)(O)CC1CCCCC1)c1ccc(Cl)c(Cl)c1 [CGP54626]
Firing rate of LHb neurons ([1]; CTRL mice): 3.62±0.65 Hz
Firing rate of LHb neurons ([1]; FsE mice): 8.23±2.25 Hz
Reversal of I-baclofen ([2]; CGP54626 10 μM): fully reversed; also recorded: readily reversed

Nc1nc2c(ncn2[C@@H]2O[C@H](COP(=O)(O)OP(=O)(O)OP(O)(O)=S)[C@@H](O)[C@H]2O)c(=O)[nH]1 [GTPγS, reference compound]
GTPγS-evoked Ba2+-sensitive outward current ([3]; CTRL mice): 92.55±21.83 pA
GTPγS-evoked Ba2+-sensitive outward current ([3]; FsE mice): 38.00±5.27 pA

COc1ccc(S(=O)(=O)N(CCO)c2ccccc2CN(C)C/C=C/c2ccc(Cl)cc2)cc1 [KN93]
I-baclofen current ([2]; KN93 10 μM in the internal solution, CTRL mice): 106.3±18.37 pA
FsE induced reduction of GABAB-GIRK currents [2, 5]: failed to recover; also recorded: does not affect
I-Baclofen at baseline (control mice) [2, 5]: did not affect

C=C1[C@@H](O)[C@@H]2O[C@]3(CC[C@H](/C=C/[C@@H](C)[C@@H]4CC(C)=C[C@@]5(O[C@H](C[C@@](C)(O)C(=O)O)CC[C@H]5O)O4)O3)CC[C@H]2O[C@@H]1[C@@H](O)C[C@H](C)[C@H]1O[C@@]2(CCCCO2)CC[C@H]1C [Okadaic Acid]
I-baclofen current ([2]; Okadaic Acid 100 nM in the internal solution, CTRL mice): 130.7±25.25 pA
I-baclofen current ([2]; Okadaic Acid 100 nM in the internal solution, FsE mice): 120.4±25.61 pA
I-baclofen CTRL vs FsE ([2]; Okadaic Acid 100 nM intracellular dialysis, listed as OA): comparable to control mice
I-Baclofen at baseline (control mice) [2, 6]: comparable to naïve condition
I-baclofen CTRL vs FsE [2, 6]: no difference between groups

NCC(CC(=O)O)c1ccc(Cl)cc1 (centres unmarked) [baclofen]
Firing rate of LHb neurons ([1]; CTRL mice): 0.33±0.11 Hz
Firing rate of LHb neurons ([1]; FsE mice): 4.89±1.40 Hz
I baclofen ([2]; 1 h after exposure to fox urine (OPE mice)): 47.4±7.9
I baclofen ([2]; CTRL mice of odor predator exposure paradigm): 110.5±29.1
I-baclofen ([2]; CTRL mice of restraint stress procedure): 121.7±14.8
I-baclofen ([2]; baclofen 100 μM, FsE mice, 1 hour after): 55.4±7.2 pA
I-baclofen ([2]; baclofen 100 μM, FsE mice, 1 day after): 59.8±9.6 pA
I-baclofen ([2]; baclofen 100 μM, FsE mice, 7 days after): 40.1±9.0 pA
I-baclofen ([2]; baclofen 100 μM, FsE mice, 14 days after): 39.6±6.6 pA
I-baclofen ([2]; baclofen 100 μM, FsE mice, 30 days after): 133.0±26.1 pA
I-baclofen, residual current independent of GIRKs ([2]; CTRL mice): 21.3±3.7
I-baclofen, residual current independent of GIRKs ([2]; FsE mice): 21.3±9.1
I-baclofen ([2]; restraint stress (RS) mice, 1 h after the procedure): 68.3±15.3
Firing of LHb neurons evoked by current steps (20 pA) ([4]; FsE animals): only partially decreased
Firing of LHb neurons evoked by current steps (20 pA) ([4]; control mice): significantly depressed

[Ba+2] [barium]
Effect on I-Baclofen ([2]; barium 1 mM): abolished
